Measured values from ChEMBL document CHEMBL1201862, “PubChem BioAssay data set” (2004).
Where “and” joins values, the source holds several entries; their conditions need not be identical. Identical values can stand only once.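 Test compounds were applied to cells in 96-well plates for 48 hours at 5 doses. GI50 = concentration required for 50% inhibition of growth.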 Calls of active or inactive are those of the source. Cut-off read from the data, not from the text of the source: active = GI50 up to about 1.1 µM and inactive = higher.

Legend:
Test in all cases: NCI tumour cell line growth inhibition, 48 h
[1] = test system: BT-549
[2] = test system: COLO 205
[3] = test system: A498
[4] = test system: HCT-15
[5] = test system: HCC 2998
[6] = test system: SN12C
[7] = test system: LOX IMVI
[8] = test system: Malme-3M
[9] = test system: NCI-H522
[10] = test system: DU-145
[11] = test system: HOP-62
[12] = test system: OVCAR-5
[13] = test system: OVCAR-3
[14] = test system: SF-295
[15] = test system: HCT-116
[16] = test system: MCF7
[17] = test system: SR
[18] = test system: MDA-N
[19] = test system: HOP-92
[20] = test system: MOLT-4

Row | Compound | GI50 [1] | GI50 [2] | GI50 [3] | GI50 [4] | GI50 [5] | GI50 [6] | GI50 [7] | GI50 [8] | GI50 [9] | GI50 [10] | GI50 [11] | GI50 [12] | GI50 [13] | GI50 [14] | GI50 [15] | GI50 [16] | GI50 [17] | GI50 [18] | GI50 [19] | GI50 [20]
1 | CC(=O)c1cc2c(s1)C(=O)c1scc(C(C)=O)c1C2=O | 1.12 µM (active) | 1.97 µM (inactive) | 2.34 µM (inactive) | 0.308 µM | 1.98 µM (inactive) | 0.273 µM (active) | 0.0711 µM (active) | 0.385 µM (active) | 0.378 µM (active) | 1.52 µM (inactive) | 0.467 µM (active) | 1.57 µM (inactive) | 0.0738 µM (active) | 0.883 µM (active) | 0.293 µM (active) | 0.163 µM (active) | 0.107 µM (active) | 0.198 µM (active) | 0.318 µM (active) | –
2 | CN1CCN(CC(=O)N2c3ccccc3Sc3cc4ccccc4cc32)CC1 | 15.1 µM (inactive) | 13.9 µM (inactive) | 13.7 µM (inactive) | 16.7 µM | – | 12.1 µM (inactive) | 15.5 µM (inactive) | 13.6 µM (inactive) | 15 µM (inactive) | 15.9 µM (inactive) | 18.7 µM (inactive) | 14.8 µM (inactive) | 12.9 µM (inactive) | 14.7 µM (inactive) | 10.1 µM (inactive) | 15.8 µM (inactive) | 13.9 µM (inactive) | 10 µM (inactive) | 10.6 µM (inactive) | 12.2 µM (inactive)
3 | Cc1ccnc2[nH]c(-c3ccccc3)cc(=O)c12 | 19 µM (inactive) | 0.0039 µM (active) | > 10 µM (inactive) | 0.00485 µM | 0.037 µM (active) | 0.0277 µM (active) | 0.0149 µM (active) | 0.0092 µM (active) | 0.00838 µM (active) | 0.0313 µM (active) | – | 0.643 µM (active) | 0.00583 µM (active) | 0.00309 µM (active) | 0.00396 µM (active) | 0.0398 µM (active) | 0.00103 µM (active) | 0.0011 µM (active) | 0.0524 µM (active) | 0.0132 µM (active)
4 | CC(=O)OC1OC(C2c3cccc(O)c3C(=O)c3c(O)cc(CO)cc32)C(O)C(O)C1O (stereo not given) | 4.66 µM (inactive) and 5.7 µM (inactive) | – | 6.34 µM (inactive) | 3.37 µM and 3.51 µM | 1.85 µM (inactive) and 3.03 µM (inactive) | 7.11 µM (inactive) and 5.35 µM (inactive) | 2.87 µM (inactive) and 3.03 µM (inactive) | 4.39 µM (inactive) and 3.45 µM (inactive) | 4.51 µM (inactive) and 2.91 µM (inactive) | 4.55 µM (inactive) and 4.88 µM (inactive) | – | 3.94 µM (inactive) and 2.4 µM (inactive) | – | 2.72 µM (inactive) and 3.62 µM (inactive) | 3.01 µM (inactive) and 2.92 µM (inactive) | 5.04 µM (inactive) and 4.75 µM (inactive) | 2.67 µM (inactive) and 1.93 µM (inactive) | 3.74 µM (inactive) and 3.13 µM (inactive) | 3.1 µM (inactive) | 4.13 µM (inactive) and 4.58 µM (inactive)
5 | C=CCN1C[C@@H](C)N([C@@H](c2ccccc2)c2ccc(C(=O)N(CC)CC)cc2)C[C@@H]1C | > 100 µM (inactive) | > 100 µM (inactive) | > 100 µM (inactive) | > 100 µM | – | > 100 µM (inactive) | – | > 100 µM (inactive) | > 100 µM (inactive) | > 100 µM (inactive) | > 100 µM (inactive) | > 100 µM (inactive) | > 100 µM (inactive) | > 100 µM (inactive) | > 100 µM (inactive) | > 100 µM (inactive) | > 100 µM (inactive) | > 100 µM (inactive) | 8.43 µM (inactive) | 33.3 µM (inactive)
6 | Cn1c(=O)c2nc(SCc3ccccn3)[nH]c2n(C)c1=S | > 100 µM (inactive) | > 100 µM (inactive) | 23.3 µM (inactive) | > 100 µM | – | 74.1 µM (inactive) | > 100 µM (inactive) | > 100 µM (inactive) | > 100 µM (inactive) | > 100 µM (inactive) | 44 µM (inactive) | > 100 µM (inactive) | > 100 µM (inactive) | 34.2 µM (inactive) | > 100 µM (inactive) | > 100 µM (inactive) | > 100 µM (inactive) | > 100 µM (inactive) | 39.2 µM (inactive) | > 100 µM (inactive)
7 | Cc1cc(C)nc(NS(=O)(=O)c2ccc(NC(=O)c3cccc4c(NNc5ccc(S(=O)(=O)N=C(N)N)cc5)c5ccccc5nc34)cc2)n1 | > 50 µM (inactive) | > 50 µM (inactive) | > 50 µM (inactive) | > 50 µM | > 50 µM (inactive) | > 50 µM (inactive) | > 50 µM (inactive) | > 50 µM (inactive) | > 50 µM (inactive) | > 50 µM (inactive) | > 50 µM (inactive) | – | > 50 µM (inactive) | > 50 µM (inactive) | > 50 µM (inactive) | > 50 µM (inactive) | > 50 µM (inactive) | > 50 µM (inactive) | > 50 µM (inactive) | > 50 µM (inactive)
